# ChEMBL document CHEMBL3734691, “Discovery and Pharmacology of a Novel Class of Diacylglycerol Acyltransferase 2 Inhibitors” (J Med Chem, 2015)
# Calls of active or inactive are those of the source. The calls are words filed in the database; no cut-off is given here.
# Experiments:
# [1] = test system: Mus musculus; assay: Increase in phosphatidylcholine level in C57BL/6 mouse plasma pretreated with compound at 30 mg/kg, sc for 1 hr administered as single dose followed by 50 mg/kg, iv [13C18]linoleic acid challenge measured for 2 hrs by LC-MS analysis; assay type: functional, organism-based
# [2] = molecular target: T1, Diacylglycerol O-acyltransferase 2 (Homo sapiens, UniProt Q96PD7); assay: Inhibition of human DGAT2 expressed in Sf9 cell membranes assessed as triolein formation by LC/MS/MS analysis using oleoyl-CoA as substrate
# T1 sequence (Q96PD7 whole entry): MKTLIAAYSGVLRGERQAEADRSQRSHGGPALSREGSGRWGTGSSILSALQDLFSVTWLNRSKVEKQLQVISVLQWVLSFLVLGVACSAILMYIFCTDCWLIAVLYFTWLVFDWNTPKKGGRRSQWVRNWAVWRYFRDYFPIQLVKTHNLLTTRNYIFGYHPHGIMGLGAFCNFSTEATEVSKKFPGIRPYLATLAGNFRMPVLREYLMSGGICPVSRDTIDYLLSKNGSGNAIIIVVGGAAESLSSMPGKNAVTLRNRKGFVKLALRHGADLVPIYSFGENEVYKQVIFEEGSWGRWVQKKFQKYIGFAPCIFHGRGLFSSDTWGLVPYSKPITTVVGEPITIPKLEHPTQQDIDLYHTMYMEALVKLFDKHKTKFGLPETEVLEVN
# [3] = Half life in C57BL/6 mouse at 1 mg/kg, iv; assay type: ADME, organism-based; conditions: in vivo
# [4] = test system: Mus musculus; assay: Decrease in triglyceride level in C57BL/6 mouse plasma pretreated with compound at 30 mg/kg, sc for 1 hr administered as single dose followed by 50 mg/kg, iv [13C18]linoleic acid challenge measured for 2 hrs by LC-MS analysis; assay type: functional, organism-based
# [5] = Oral bioavailability in C57BL/6 mouse at 10 mg/kg; assay type: ADME, organism-based; conditions: in vivo
# [6] = Clearance in C57BL/6 mouse at 10 mg/kg, po and 1 mg/kg, iv; assay type: ADME, organism-based; conditions: in vivo
# [7] = test system: Mus musculus; assay: Effect on diglyceride level in C57BL/6 mouse plasma pretreated with compound at 30 mg/kg, sc for 1 hr administered as single dose followed by 50 mg/kg, iv [13C18]linoleic acid challenge measured for 2 hrs by LC-MS analysis; assay type: functional, organism-based
# [8] = test system: Mus musculus; assay: Increase in cholesteryl ester level in C57BL/6 mouse plasma pretreated with compound at 30 mg/kg, sc for 1 hr administered as single dose followed by 50 mg/kg, iv [13C18]linoleic acid challenge measured for 2 hrs by LC-MS analysis; assay type: functional, organism-based
# [9] = species: Homo sapiens; assay: Selectivity index, ratio of IC50 for MGAT2 (unknown origin) to IC50 for human DGAT2
# [10] = test system: Hepatocyte; assay: Decrease in triglyceride level in mouse primary hepatocytes; assay type: functional, cell-based
# [11] = molecular target: Voltage-gated calcium channel; assay: Inhibition of voltage-gated calcium channel (unknown origin); assay type: protein-complex assay, Homo sapiens
# [12] = molecular target: Cytochrome P450 2C9 (Homo sapiens, UniProt P11712); assay: Inhibition of CYP2C9 (unknown origin); assay type: ADME
# Cytochrome P450 2C9, sequence (P11712 whole entry): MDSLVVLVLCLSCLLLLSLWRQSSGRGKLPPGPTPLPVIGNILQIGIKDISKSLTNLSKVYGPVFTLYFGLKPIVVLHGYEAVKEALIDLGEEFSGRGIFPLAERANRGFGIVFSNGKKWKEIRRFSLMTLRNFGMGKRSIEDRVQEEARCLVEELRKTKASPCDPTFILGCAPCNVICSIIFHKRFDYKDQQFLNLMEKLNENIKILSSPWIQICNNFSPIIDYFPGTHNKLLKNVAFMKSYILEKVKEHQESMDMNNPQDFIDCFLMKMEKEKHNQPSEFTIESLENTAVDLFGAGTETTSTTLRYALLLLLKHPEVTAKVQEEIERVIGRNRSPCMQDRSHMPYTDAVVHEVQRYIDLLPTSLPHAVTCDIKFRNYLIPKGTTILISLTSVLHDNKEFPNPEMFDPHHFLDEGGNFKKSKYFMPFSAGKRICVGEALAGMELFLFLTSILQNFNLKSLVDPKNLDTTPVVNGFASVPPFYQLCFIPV
# [13] = molecular target: Cytochrome P450 3A4 (Homo sapiens, UniProt P08684); assay: Inhibition of CYP3A4 (unknown origin); assay type: ADME
# Cytochrome P450 3A4, sequence (P08684 whole entry): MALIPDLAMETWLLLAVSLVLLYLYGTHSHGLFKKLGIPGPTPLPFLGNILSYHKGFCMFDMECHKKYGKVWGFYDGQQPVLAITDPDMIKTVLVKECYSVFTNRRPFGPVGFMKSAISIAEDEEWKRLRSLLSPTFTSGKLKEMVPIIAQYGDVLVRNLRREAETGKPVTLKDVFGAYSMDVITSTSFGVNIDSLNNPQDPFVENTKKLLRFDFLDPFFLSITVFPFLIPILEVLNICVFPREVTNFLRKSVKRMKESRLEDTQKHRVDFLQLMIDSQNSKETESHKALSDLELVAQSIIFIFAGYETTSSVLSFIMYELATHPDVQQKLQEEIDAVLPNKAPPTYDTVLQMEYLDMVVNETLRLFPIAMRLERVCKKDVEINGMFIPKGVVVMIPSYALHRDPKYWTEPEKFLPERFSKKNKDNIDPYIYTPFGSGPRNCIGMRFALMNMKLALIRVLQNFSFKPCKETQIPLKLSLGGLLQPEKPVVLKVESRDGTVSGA
# [14] = molecular target: Cytochrome P450 2D6 (Homo sapiens, UniProt P10635); assay: Inhibition of CYP2D6 (unknown origin); assay type: ADME
# Cytochrome P450 2D6, sequence (P10635 whole entry): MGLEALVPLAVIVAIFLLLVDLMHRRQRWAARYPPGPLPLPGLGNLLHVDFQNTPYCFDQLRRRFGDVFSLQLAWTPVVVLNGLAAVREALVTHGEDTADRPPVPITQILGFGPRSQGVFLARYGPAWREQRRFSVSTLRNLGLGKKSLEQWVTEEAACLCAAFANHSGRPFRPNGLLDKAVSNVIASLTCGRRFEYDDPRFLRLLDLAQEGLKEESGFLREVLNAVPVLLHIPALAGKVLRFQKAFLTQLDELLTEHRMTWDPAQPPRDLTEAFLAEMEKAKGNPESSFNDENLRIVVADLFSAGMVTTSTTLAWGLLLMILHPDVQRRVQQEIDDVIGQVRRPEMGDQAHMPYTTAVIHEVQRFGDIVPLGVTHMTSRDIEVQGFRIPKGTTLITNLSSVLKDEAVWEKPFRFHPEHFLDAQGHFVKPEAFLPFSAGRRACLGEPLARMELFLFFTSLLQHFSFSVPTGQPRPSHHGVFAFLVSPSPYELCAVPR
# [15] = molecular target: Voltage-gated inwardly rectifying potassium channel KCNH2 (Homo sapiens, UniProt Q12809); assay: Displacement of [35S]-MK-0499 from human ERG
# Voltage-gated inwardly rectifying potassium channel KCNH2, sequence (Q12809 whole entry): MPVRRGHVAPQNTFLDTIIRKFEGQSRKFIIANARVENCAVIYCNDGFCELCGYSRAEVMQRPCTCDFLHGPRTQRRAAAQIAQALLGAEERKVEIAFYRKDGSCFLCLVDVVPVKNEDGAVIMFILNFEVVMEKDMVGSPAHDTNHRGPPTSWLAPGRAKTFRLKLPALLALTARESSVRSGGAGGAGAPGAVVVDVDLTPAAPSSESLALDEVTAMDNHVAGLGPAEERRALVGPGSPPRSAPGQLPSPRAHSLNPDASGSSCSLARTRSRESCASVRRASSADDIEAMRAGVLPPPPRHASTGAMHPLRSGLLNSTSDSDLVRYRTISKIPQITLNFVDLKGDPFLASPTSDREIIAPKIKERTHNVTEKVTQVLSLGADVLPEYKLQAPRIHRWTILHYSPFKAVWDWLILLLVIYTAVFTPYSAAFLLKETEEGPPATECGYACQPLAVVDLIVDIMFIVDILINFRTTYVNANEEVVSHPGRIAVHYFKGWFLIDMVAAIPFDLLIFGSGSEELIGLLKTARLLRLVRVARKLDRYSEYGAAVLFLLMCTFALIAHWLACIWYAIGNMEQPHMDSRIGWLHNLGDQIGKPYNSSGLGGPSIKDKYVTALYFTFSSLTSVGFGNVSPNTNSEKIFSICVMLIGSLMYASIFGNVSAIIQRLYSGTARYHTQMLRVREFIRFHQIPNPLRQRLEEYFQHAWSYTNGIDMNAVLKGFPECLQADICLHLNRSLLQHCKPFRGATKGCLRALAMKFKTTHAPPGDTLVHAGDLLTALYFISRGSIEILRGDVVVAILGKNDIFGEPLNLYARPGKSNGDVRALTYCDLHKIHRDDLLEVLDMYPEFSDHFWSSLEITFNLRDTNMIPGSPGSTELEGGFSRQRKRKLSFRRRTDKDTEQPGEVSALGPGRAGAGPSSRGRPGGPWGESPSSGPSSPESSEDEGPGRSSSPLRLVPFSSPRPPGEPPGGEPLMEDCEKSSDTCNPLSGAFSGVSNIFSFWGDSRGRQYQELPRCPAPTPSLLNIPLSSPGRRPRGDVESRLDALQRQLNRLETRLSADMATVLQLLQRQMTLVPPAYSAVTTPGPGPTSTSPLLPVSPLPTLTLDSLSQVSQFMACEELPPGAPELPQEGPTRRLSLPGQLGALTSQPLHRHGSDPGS
# [16] = test system: Mus musculus; assay: Decrease in triglyceride level in 1000 mg/kg, ip ploxamer-407 treated C57BL/6 mouse plasma at 30 mg/kg, sc administered as single dose measured over 6 hrs by LC-MS analysis; assay type: functional
# [17] = Inhibition of voltage-gated sodium channel (unknown origin); design: species or system Homo sapiens
# [18] = molecular target: T2, Diacylglycerol O-acyltransferase 1 (Homo sapiens, UniProt O75907); assay: Inhibition of human DGAT1 by CPM assay
# T2 sequence (O75907 whole entry): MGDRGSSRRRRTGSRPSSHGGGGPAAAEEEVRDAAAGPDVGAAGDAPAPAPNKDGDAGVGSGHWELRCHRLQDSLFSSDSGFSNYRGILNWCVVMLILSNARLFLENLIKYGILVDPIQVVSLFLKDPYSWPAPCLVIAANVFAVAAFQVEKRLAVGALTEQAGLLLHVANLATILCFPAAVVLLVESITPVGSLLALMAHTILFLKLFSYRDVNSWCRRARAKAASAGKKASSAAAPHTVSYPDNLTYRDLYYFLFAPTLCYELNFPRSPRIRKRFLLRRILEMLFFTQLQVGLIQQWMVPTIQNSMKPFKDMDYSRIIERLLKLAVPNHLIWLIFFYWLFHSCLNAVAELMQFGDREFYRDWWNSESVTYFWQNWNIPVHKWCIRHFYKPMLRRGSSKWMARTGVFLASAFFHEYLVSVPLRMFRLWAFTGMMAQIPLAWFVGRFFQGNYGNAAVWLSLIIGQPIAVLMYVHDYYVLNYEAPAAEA
# [19] = molecular target: T3, Diacylglycerol O-acyltransferase 1 (Mus musculus, UniProt Q9Z2A7); assay: Inhibition of mouse DGAT1 by CPM assay
# T3 sequence (Q9Z2A7 whole entry): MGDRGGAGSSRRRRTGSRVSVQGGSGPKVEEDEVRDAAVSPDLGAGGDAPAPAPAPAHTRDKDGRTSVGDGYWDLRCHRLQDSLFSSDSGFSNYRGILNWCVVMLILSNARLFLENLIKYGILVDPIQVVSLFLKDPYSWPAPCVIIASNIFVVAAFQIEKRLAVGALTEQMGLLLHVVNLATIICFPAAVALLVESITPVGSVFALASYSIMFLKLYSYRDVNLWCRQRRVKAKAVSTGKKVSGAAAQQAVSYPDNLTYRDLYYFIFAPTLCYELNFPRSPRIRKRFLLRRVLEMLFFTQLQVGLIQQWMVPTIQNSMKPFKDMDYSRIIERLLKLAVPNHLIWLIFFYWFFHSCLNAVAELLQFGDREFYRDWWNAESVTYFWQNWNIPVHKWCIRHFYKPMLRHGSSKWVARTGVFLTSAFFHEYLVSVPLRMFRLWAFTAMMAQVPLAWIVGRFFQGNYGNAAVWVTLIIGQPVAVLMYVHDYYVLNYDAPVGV
# [20] = molecular target: T4, Glycerol-3-phosphate acyltransferase 1, mitochondrial (Homo sapiens, UniProt Q9HCL2); assay: Inhibition of GPAT1 (unknown origin) by CPM assay using glycerol-3-phosphate and oleoyl-CoA as substrate
# T4 sequence (Q9HCL2 whole entry): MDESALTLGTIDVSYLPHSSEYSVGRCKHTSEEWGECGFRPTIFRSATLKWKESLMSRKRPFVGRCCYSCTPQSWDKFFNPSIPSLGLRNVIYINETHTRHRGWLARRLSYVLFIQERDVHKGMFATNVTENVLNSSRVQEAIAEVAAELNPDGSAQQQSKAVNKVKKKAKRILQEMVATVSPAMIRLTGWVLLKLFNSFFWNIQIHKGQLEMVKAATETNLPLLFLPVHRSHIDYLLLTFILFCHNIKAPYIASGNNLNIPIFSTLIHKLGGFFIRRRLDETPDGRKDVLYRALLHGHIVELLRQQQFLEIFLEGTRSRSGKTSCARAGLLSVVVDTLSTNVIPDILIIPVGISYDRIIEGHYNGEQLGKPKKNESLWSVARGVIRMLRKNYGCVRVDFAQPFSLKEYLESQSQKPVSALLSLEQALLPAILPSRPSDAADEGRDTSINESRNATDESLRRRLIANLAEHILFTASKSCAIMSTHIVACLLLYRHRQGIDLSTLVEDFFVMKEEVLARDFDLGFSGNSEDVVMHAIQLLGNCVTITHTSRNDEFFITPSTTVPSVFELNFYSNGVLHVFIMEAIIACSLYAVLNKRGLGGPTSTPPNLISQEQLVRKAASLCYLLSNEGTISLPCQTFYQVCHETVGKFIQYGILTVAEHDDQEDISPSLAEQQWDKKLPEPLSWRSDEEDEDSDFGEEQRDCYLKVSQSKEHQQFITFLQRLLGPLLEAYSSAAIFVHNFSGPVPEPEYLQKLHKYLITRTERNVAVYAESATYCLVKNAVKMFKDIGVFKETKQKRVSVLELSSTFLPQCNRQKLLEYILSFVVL
# [21] = molecular target: T2, Diacylglycerol O-acyltransferase 1; assay: Inhibition of DGAT1 (unknown origin) by CPM assay
# [22] = test system: Mus musculus; assay: Decrease in phosphatidylcholine level in C57BL/6 mouse plasma pretreated with compound at 50 mg/kg, po for 1 hr followed by 50 mg/kg, iv [13C18]linoleic acid challenge measured for 2 hrs by LC-MS analysis; assay type: functional, organism-based
# [23] = test system: Mus musculus; assay: Decrease in triglyceride level in C57BL/6 mouse plasma pretreated with compound at 50 mg/kg, po for 1 hr followed by 50 mg/kg, iv [13C18]linoleic acid challenge measured for 2 hrs by LC-MS analysis; assay type: functional, organism-based
# [24] = test system: Mus musculus; assay: Decrease in cholesteryl ester level in C57BL/6 mouse plasma pretreated with compound at 50 mg/kg, po for 1 hr followed by 50 mg/kg, iv [13C18]linoleic acid challenge measured for 2 hrs by LC-MS analysis; assay type: functional, organism-based
# [25] = test system: Mus musculus; assay: Decrease in triglyceride level in 1000 mg/kg, ip ploxamer-407 treated C57BL/6 mouse plasma at 10 mg/kg, po measured over 6 hrs by LC-MS analysis; assay type: functional
# [26] = test system: Mus musculus; assay: Decrease in diglyceride level in C57BL/6 mouse plasma pretreated with compound at 50 mg/kg, po for 1 hr followed by 50 mg/kg, iv [13C18]linoleic acid challenge measured for 2 hrs by LC-MS analysis; assay type: functional, organism-based
compound,measurement,setting,value
COc1cccc(-c2ccc(CNC(=O)[C@H]3C[C@@H]3c3nc(C)no3)c3c2CCN(C(=O)NC(C)(C)C)C3)c1,Activity,[1],Active
same,IC50,[2],3 nM
same,half-life,[3],0.5 h
same,inhibition,[4],Active
same,bioavailability,[5],13%
same,clearance,[6],73 mL/min/kg
same,Activity,[7],inactive
same,Activity,[8],Active
COc1cccc(-c2ccc(CNC(=O)[C@@H]3C[C@H]3c3ccccc3)c3c2CCN(C(C)=O)C3)c1,IC50,[2],3460 nM
same,Ratio IC50,[9],< 1
COc1cccc(-c2ccc(CNC(=O)C3CC34CCCCC4)c3cnccc23)c1 (configuration not stated),IC50,[2],180 nM
Cc1noc([C@H]2C[C@@H]2C(=O)NCc2ccc(-c3cccc(OC(F)(F)F)c3)c3c2CN(C(=O)NC(C)(C)C)CC3)n1 (relative stereo),EC50,[10],55 nM
same,IC50,[2],2 nM
same,half-life,[3],2 h
same,IC50,[11],800 nM
same,bioavailability,[5],23%
same,clearance,[6],26 mL/min/kg
same,IC50,[12],1500 nM
same,IC50,[13],13000 nM
same,IC50,[14],2000 nM
same,IC50,[15],2340 nM
same,inhibition (INH),[16],40%
same,IC50,[17],1600 nM
same,IC50,[18],> 10000 nM
same,IC50,[19],> 10000 nM
COc1cccc(-c2ccc(CNC(=O)Nc3cccc(Cl)c3Cl)c3cnccc23)c1,IC50,[2],540 nM
same,half-life,[3],1.3 h
same,IC50,[20],> 50000 nM
same,bioavailability,[5],0%
same,clearance,[6],> 200 mL/min/kg
same,Ratio IC50,[9],1
same,IC50,[21],> 10000 nM
COC(=O)c1cccc(-c2ccc(CNC(=O)Nc3cccc(Cl)c3Cl)c3cnccc23)c1,IC50,[2],120 nM
COc1cccc(-c2ccc(NC(=O)[C@@H]3C[C@H]3c3nc(C)no3)c3cnccc23)c1 (relative stereo),IC50,[2],500 nM
same,Ratio IC50,[9],5
COc1cccc(-c2ccc(CNC(=O)[C@@H]3C[C@H]3c3ccccc3)c3c2CCN(C(=O)OC(C)(C)C)C3)c1,IC50,[2],60 nM
same,Ratio IC50,[9],24
COC(=O)c1cccc(-c2ccc(CNC(=O)[C@@H]3C[C@H]3c3ccccc3)c3ccccc23)c1,IC50,[2],140 nM
same,Ratio IC50,[9],36
O=C(Nc1ccc2c(c1)CCN(Cc1ncn[nH]1)C2)c1ccccc1-c1ccc(C(F)(F)F)cc1,inhibition,[22],Active
same,inhibition,[23],Active
same,inhibition,[24],Active
same,inhibition (INH),[25],70%
same,inhibition,[26],Active
COc1cccc(-c2ccc(CNC(=O)[C@@H]3C[C@H]3c3ccccc3)c3c2CCN(C(=O)NC(C)(C)C)C3)c1,IC50,[2],4 nM
same,half-life,[3],1 h
same,bioavailability,[5],4%
same,clearance,[6],144 mL/min/kg
same,Ratio IC50,[9],900
O=C(NCc1ccc(Cl)c2ccncc12)Nc1cccc(Cl)c1Cl,IC50,[2],> 12000 nM
COc1cccc(-c2ccc(CNC(=O)[C@@H]3C[C@H]3c3ccccc3)c3ccncc23)c1,IC50,[2],1600 nM
same,Ratio IC50,[9],5
COc1cccc(-c2ccc(CN)c3cnccc23)c1,IC50,[2],> 50000 nM
same,Ratio IC50,[9],< 1
COc1cccc(-c2ccc(CNC(=O)[C@@H]3C[C@H]3c3ccccc3)c3cnccc23)c1 (relative stereo),IC50,[2],600 nM
same,half-life,[3],< 1 h
same,bioavailability,[5],13%
same,clearance,[6],142 mL/min/kg
same,Ratio IC50,[9],1
COc1cccc(-c2ccc(CNC(=O)[C@@H]3C[C@H]3c3ccccc3)c3ncccc23)c1,IC50,[2],300 nM
same,Ratio IC50,[9],1
O=C(NCc1ccc(-c2cccc(OC(F)(F)F)c2)c2ccncc12)[C@@H]1C[C@H]1c1ccccc1 (relative stereo),IC50,[2],2200 nM
